Assay results: patent US20090298942A1, “ANIMAL COMPOSITION” (priority 2002, published 2009)

Test system: dogs
Experiment: Example 2: success at learning the discrimination task (Test B) after twenty two days on the assigned diet
Assay type: in vivo
Conditions: 0.3% amino acid added to control food product with approximately 2% leucine
Method: The baseline learning capability of each dog was determined in a discrimination task (Test A) allowing the dogs to be divided into two groups, slow and fast learners. The slow and fast learners were randomly assigned to diet A, B, C or D. Dogs remained on their assigned diet for a period of twenty two days and their learning capability was then re evaluated with another discrimination task (Test B). The time to successfully learn the discrimination task, the total number of discrimination attempts, and the proportion of correct responses by each dog was recorded.
Test B was introduced in stages in a similar way to Test A. Again each dog was in the test area for up to an hour depending on the length of time that it took for the dog to complete the task.
Stage 1 The food preference test was repeated where necessary.
Stage 2 The dog was taken down the side of each box and encouraged to enter the food drop area from the rear by throwing food forward into the area.
Stage 3 The handler stood in front of one of the boxes and encouraged the dog to go down the side and into the box on its own. As its head reached the end of the entrance passage food was dropped by hand over the front panel into the area. This was repeated at random with both boxes.
Stage 4 The dog was placed centrally about 2.5 m back from the boxes and a red light was activated. The handler walked forward towards the light encouraging the dog to go forward along the side passage and into the box alone where a food pellet was dropped through the hatch as the dog's head reached the end of the entrance passage.
Stage 5 The dog was placed centrally approximately 3 m away from the equipment. A light was activated and the dog allowed time to scan the equipment. The dog was then released to make its own decision about which box to approach. If and when it entered the correct box a food pellet was dropped into the area.
These five introductory stages took, on average, 20 minutes, depending on the initial reaction of the dog to the surroundings. […]

Row | Compound | improvement in canine learning
1 | CC[C@H](C)[C@H](N)C(=O)O [isoleucine] | Statistically significant improvements in canine learning were not demonstrated
2 | CC(C)C[C@H](N)C(=O)O [leucine] | measurable improvement in canine learning
3 | N[C@@H](Cc1c[nH]c2ccccc12)C(=O)O [tryptophan] | Statistically significant improvements in canine learning were not demonstrated
